Data on one compound can be found in patent US8937065B2, “Compositions and methods for modulating a kinase” (Clevexel Pharma, priority 2011, dated 2015).

One series deals with CYP. Briefly: CYP inhibition. Format: in vitro ADME.
A short description of another series: Mouse PK (PO). Particulars: in vivo.
A further series relates to Molt-4 cells. In words: Proliferation of Molt-4 cells (Cell Titer-Glo). Particulars: Homo sapiens, T cells, outcome-based, read-out: IC50 Proliferation Molt-4 cells (ALL).
The next series concerns Daudi cells. Briefly: Proliferation of Daudi cells (Cell Titer-Glo, 96 h). Particulars: Homo sapiens, B cells, outcome-based, read-out: IC50 Proliferation Daudi cells (Burkitt's Lymphoma). How it is done: Growth inhibitory activity against the human tumor cell lines, RS4; 11 and Daudi was determined using Promega's Cell Titer-Glo® assay. The human tumor cells were placed in a 96-well microculture plate (Costar white, flat bottom #3917) in a total volume of 90 μL/well. After 24 hours of incubation in a humidified incubator at 37° C. with 5% CO2 and 95% air, […] serially diluted test agents in growth medium were added to each well. After 96 total hours of culture in a CO2 incubator, the plated cells and Cell Titer-Glo® (Promega # G7571) reagents were brought to room temperature to equilibrate for 30 minutes. 100 μL of Cell Titer-Glo® reagent was added to each well. The plate was shaken for 2 minutes and then left to equilibrate for 10 minutes before reading luminescence on the Tecan GENios microplate reader.
Percent inhibition of cell growth was calculated relative to untreated control wells. All tests were performed in duplicate at each concentration level. The IC50 value for the test agents was estimated using Prism 3.03 by curve-fitting the data using the following four parameter-logistic equation: […]

Another series has as its system JAK3 pathway. Briefly: Cell based JAK3 pathway inhibition (STAT6-bla RA1 cells, IL-4 activated). How it is done: 32 μL of the cell suspension (25,000 cells) was added to each well of a 384-well TC-Treated assay plate. Cells in Assay Media were incubated for 16-24 hours in the plate at 37° C./5% CO2 in a humidified incubator. 4 μL of a 10× serial dilution of a compound of the invention was added to appropriate wells of the plate and pre-incubated at 37° C./5% CO2 in a humidified incubator with cells for 30 minutes. 4 μL of 10× control activator IL-4 at the predetermined EC80 concentration was added to wells containing the compound of the invention. The plate was incubated for 5 hours at 37° C./5% CO2 in a humidified incubator. 8 μL of 1 μM Substrate Loading Solution was added to each well and the plate was incubated for 2 hours at room temperature. The plate was read on a fluorescence plate reader.

Series [1] concerns NF-kB pathway, Ramos cells. Briefly: NFkB/Ramos reporter assay. Particulars: Homo sapiens, read-out: IC50 Cell-based selectivity: NF-kB pathway Ramos cells. As for the experimental part:
Cells were plated on the day prior to the assay. Media required included:
• 1. Cells were harvest from culture in Growth Medium and resuspend in Assay Medium at a density of 1.6×10^6 cells/ml. • 2. 32 μl per well of Assay medium were added to the cell-free control wells. 32 μl per well of a cell suspension were added to Unstimulated and Stimulated wells • 3. After plating, the plates were incubated in a 37° C./5% CO2 incubator for 16-20 hours. Preparation of DMSO Solution:
A solution was prepared of 5% DMSO solution (10×) in Assay Media.
A solution was prepared of 10×TNFα solution in Assay Medium. It is recommended to run a dose response curve to determine the EC80 for the Stimulation Solution.
• 1. 4 μl of 10×DMSO solution was added to each well. • 2. 4 μl of Assay Medium was added to the Unstimulated wells and to the Cell-Free wells. • 3. 4 μl of the 10×TNFα was added to the Stimulated wells. • 4. The assay plate was incubated in a humidified 37° C./5% CO2 incubator for 5 hours. Substrate Loading and Incubation
This protocol is designed for loading cells with LiveBLAzer™-FRET B/G Substrate (CCF4-AM) or CCF2-AM. If alternative substrates are used it is recommended to follow the loading protocol provided with the substrate. […]
Added 934 μl Solution C to the combined solutions from above step and vortexed. • 3. […] The cells were counted and then spun cells down and resuspended in 4° C. […]

In the series with CYP, `O=C(CN1CCOCC1)Nc1cccc(-c2nc(-c3c[nH]c(C(=O)N4CCCC4)c3)cs2)c1` [7A, 2-morpholino-N-(3-(4-(5-(pyrrolidine-1-carbonyl)-1H-pyrrol-3-yl)thiazol-2-yl)phenyl)acetamide] yielded a CYP inhibition of more than 10. Further, the bioavailability in the series “Mouse PK (PO)” (read-out: Mouse PK (PO) % F) worked out at 88%. For the same compound, the half-life in “Mouse PK (PO)” (read-out: Mouse PK (PO) T½ (converted)) was 3.2 h. For the same compound, the IC50 with Molt-4 cells is 35000 nM; in the series on Daudi cells, 159 nM; in the series on JAK3 pathway (STAT6-bla RA1 cells, IL-4 at EC80), 110 to 1000 nM; in series [1] it was more than 100000 nM. Further, the Emax in the series on JAK3 pathway (cell based JAK3 pathway inhibition, maximal inhibition, read-out: Max % Inh) was 75%.
